Read-outs that look alike come from different tables or passages of the source.
Experiments:
CYP3A4 (CYP3A) = CYP3A4 (CYP3A) (Homo sapiens, UniProt P08684); assay: in vitro; settings: microsomes, pH 7.4;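 also: inhibition of CYP3A-mediated 1-hydroxymidazolam formation after 10 min incubation with NADPH, quantified by HPLC MS relative to metabolite produced without test compound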
[1] = test system: Aβ40 in conditioned medium of cells stably expressing Amyloid Precursor Protein (APP); assay: In vitro BACE cell-based assay (Aβ40 in conditioned medium, sandwich ELISA); settings: Homo sapiens;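 also: compounds added as a dilution series, secreted peptide quantified by europium time-resolved fluorescence readout, potency fitted from percent of control versus compound concentration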
[2] = Microsomal stability assay, human liver microsomes;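 also: pooled human liver microsomes at 0.25 mg/mL with 1 µM compound and NADPH at 37 °C, pH 7.4, for 30 min, unchanged parent quantified by LC-MS/MS against the 0 min sample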
[3] = target: Beta Secretase enzyme (BACE) (Homo sapiens, UniProt P56817); assay: In vitro enzymatic BACE FRET (fluorescence resonance energy transfer) assay; format: biochemical;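 also: fluorescence read after 1 h with 50 nM quenched peptide substrate spanning the BACE cleavage site, in pH 4.2 acetate buffer containing 10% DMSO and nonionic detergent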
Sequence of Beta Secretase enzyme (BACE) (P56817 46-501): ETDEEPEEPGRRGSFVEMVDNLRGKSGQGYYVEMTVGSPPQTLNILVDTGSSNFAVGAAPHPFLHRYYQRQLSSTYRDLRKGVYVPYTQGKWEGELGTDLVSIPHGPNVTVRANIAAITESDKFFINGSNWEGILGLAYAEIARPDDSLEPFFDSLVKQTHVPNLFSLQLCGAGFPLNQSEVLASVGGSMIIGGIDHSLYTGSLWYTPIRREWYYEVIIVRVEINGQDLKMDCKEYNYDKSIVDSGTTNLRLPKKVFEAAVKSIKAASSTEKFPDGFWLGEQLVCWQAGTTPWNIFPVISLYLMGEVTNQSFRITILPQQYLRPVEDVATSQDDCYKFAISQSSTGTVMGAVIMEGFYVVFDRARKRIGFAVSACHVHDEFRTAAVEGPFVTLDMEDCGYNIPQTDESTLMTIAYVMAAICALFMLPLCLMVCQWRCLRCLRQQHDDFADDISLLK

Abeta peptide = assay: In vivo inhibition of beta-secretase (reduction of Abeta peptide in brain and cerebrospinal fluid); design: species or system rat; settings: Rattus norvegicus, po, 4 h, orally administered at 30 mg/kg dose, measured after 4 hours;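 also: abeta peptide quantified by sandwich ELISA with electrochemiluminescence readout in rat brain supernatant or CSF, relative to vehicle-dosed control animals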
[4] = Microsomal stability assay, rat liver microsomes;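 also: rat liver microsomes (0.25 mg/mL) with about 1 µM compound plus 1 mM NADPH, pH 7.4, 37 °C for 30 min, parent left measured by LC-MS/MS against 0 min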
CYP2D6 = CYP2D6 (Homo sapiens, UniProt P10635); assay: CYP2D6 inhibition assay (bufuralol, pooled human liver microsomes)
Sequence of CYP2D6 (P10635 whole entry): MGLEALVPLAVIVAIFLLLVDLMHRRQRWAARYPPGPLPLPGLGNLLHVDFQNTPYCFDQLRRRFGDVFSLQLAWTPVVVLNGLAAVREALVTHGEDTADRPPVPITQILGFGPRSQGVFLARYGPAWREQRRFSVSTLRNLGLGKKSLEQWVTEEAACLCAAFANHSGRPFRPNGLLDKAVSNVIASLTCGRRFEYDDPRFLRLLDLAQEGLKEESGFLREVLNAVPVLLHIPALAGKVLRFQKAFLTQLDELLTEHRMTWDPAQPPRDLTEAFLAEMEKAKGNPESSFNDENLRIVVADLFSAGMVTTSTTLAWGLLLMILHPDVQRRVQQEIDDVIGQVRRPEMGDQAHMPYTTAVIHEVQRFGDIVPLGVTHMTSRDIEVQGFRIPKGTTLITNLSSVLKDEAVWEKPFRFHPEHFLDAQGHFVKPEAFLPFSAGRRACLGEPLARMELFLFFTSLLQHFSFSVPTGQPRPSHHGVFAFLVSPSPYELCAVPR

[5] = rat cerebrospinal fluid, read-out: percent reduction of abeta peptide in the cerebrospinal fluid of the rat
[6] = 2D6 IC50, CYP enzyme inhibition
[7] = HEK293, HEK cells, read-out: HEK cell assay (IC50)
[8] = read-out: BACE1 FRET assay (IC50)
[9] = rat brain, read-out: percent reduction of abeta peptide in the brain of the rat
[10] = HEK293, HEK cells, read-out: HEK cell assay
[11] = BACE enzyme assay, read-out: BACE1 FRET assay
[12] = 2D6 IC50 (uM), CYP enzyme inhibition
[13] = HEK293, cell-based assay, HEK cells, IC50's in uM, read-out: HEK cell assay
[14] = BACE enzyme assay, IC50's in uM, read-out: BACE1 FRET assay

Sequence of CYP3A4 (CYP3A) (P08684 2-503): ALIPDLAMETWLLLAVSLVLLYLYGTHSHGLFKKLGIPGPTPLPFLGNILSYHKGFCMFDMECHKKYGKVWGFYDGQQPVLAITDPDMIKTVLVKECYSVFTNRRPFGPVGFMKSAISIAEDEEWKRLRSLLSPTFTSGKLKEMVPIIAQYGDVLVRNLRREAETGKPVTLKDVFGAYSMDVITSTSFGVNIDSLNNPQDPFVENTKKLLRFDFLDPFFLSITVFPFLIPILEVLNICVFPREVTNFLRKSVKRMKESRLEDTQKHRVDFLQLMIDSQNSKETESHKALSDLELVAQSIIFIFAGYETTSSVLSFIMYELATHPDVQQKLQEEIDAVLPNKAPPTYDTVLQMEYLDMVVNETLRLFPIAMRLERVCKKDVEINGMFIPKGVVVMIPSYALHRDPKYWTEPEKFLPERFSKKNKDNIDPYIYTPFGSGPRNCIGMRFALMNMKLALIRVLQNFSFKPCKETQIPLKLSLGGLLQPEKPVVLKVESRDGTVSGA

Compound	IC50 (CYP3A4 (CYP3A))	HLM ([2]; human liver microsomal data)	inhibition in vivo at 30 mg/kg (Abeta peptide; [5])	RLM ([4]; rat liver microsomal data)	IC50 [1, 7]	HLM ([2]; human liver microsomes)	IC50 [3, 8]	RLM ([4]; rat liver microsomes)	IC50 (CYP2D6; 2D6 IC50, CYP2D6 inhibition)	other results
COCC(=O)N[C@@H](Cc1ccc(F)cc1)[C@H](O)CN[C@H]1CC2(CCC2)Oc2c1cc(CC(C)C)cc2-n1ccnc1 [Example 478]	0.1 µM	24 µL/min/mg	10 to 80%	157 µL/min/mg						IC50 ([1]; HEK293, Table 2, HEK cells, read-out: HEK cell assay): 0.068 µM; IC50 ([3]; Table 2, read-out: BACE1 FRET assay): 0.056 µM; IC50 (CYP2D6; [6]): 2.2 µM
COCC(=O)N[C@@H](Cc1cccc(C#N)c1)[C@H](O)CN[C@H]1CC2(CCC2)Oc2c(-c3ccncc3)cc(CC(C)(C)C)cc21 [Example 636]	0.1 µM		10 to 80%		0.005 µM	32 µL/min/mg	0.008 µM	90 µL/min/mg	3 µM	
COCC(=O)N[C@@H](Cc1ccncc1)[C@H](O)CN[C@H]1CC2(CCC2)Oc2c(-c3ccncc3)cc(CC(C)C)cc21 [Example 628]	0.1 µM		10 to 80%		0.007 µM	94 µL/min/mg	0.045 µM	239 µL/min/mg	1.9 µM	
CC(=O)N[C@@H](Cc1cc(F)cc(-c2nccs2)c1)[C@H](O)CN[C@H]1CC2(CCC2)Oc2ncc(CC(C)(C)C)cc21 [Example 643, N-((1S,2R)-3-(((4′S)-6′-(2,2-dimethylpropyl)-3′,4′-dihydrospiro[cyclobutane-1,2′-pyrano[2,3-b]pyridin]-4′-yl)amino)-1-(3-fluoro-5-(1,3-thiazol-2-yl)benzyl)-2-hydroxypropyl)acetamide]	0.1 µM		10 to 80%		0.012 µM	68 µL/min/mg	0.002 µM	56 µL/min/mg	0.7 µM	inhibition in vivo at 30 mg/kg (Abeta peptide; [9]): 5 to 80%
CC(=O)N[C@@H](Cc1cccc(F)c1)[C@H](O)CN[C@H]1CC2(CCC2)Oc2c1cc(CC(C)(C)C)nc2-n1ccnc1 [Example 506]	0.1 µM	14 µL/min/mg	10 to 80%	61 µL/min/mg						IC50 [1, 10]: 0.02 µM; IC50 [3, 11]: 0.021 µM; IC50 (CYP2D6; [12]): 2.2 µM
CNc1nc(CC(C)(C)C)cc2c1OC1(CCC1)C[C@@H]2NC[C@@H](O)[C@H](Cc1cc(F)cc(-c2nccs2)c1)NC(=O)COC [Example 847]	0.4 µM	102 µL/min/mg	≥ 50%	201 µL/min/mg						IC50 [1, 13]: 0.01 µM; IC50 [3, 14]: 0.044 µM; inhibition in vivo at 30 mg/kg (Abeta peptide; [9]): 5 to 80%; IC50 (CYP2D6; [6]): 0.8 µM
COCC(=O)N[C@@H](Cc1ccc2c(c1)OCO2)[C@H](O)CN[C@H]1CC2(CCC2)Oc2ncc([C@@H]3CC3(C)C)cc21 [Example 575, N-((1S,2R)-1-(1,3-benzodioxol-5-ylmethyl)-3-(((4′S)-6′-((1R)-2,2-dimethylcyclopropyl)-3′,4′-dihydrospiro[cyclobutane-1,2′-pyrano[2,3-b]pyridin]-4′-yl)amino)-2-hydroxypropyl)-2-methoxyacetamide]	0.1 µM		10 to 80%		0.016 µM	33 µL/min/mg	0.01 µM	194 µL/min/mg	1.5 µM	
COCC(=O)N[C@@H](Cc1cccc(F)c1)[C@H](O)CN[C@H]1CC2(CCC2)Oc2c1cc(CC(C)(C)C)nc2-n1ccnc1 [Example 504]	0.1 µM	16 µL/min/mg	10 to 80%	87 µL/min/mg						IC50 [1, 10]: 0.028 µM; IC50 [3, 11]: 0.014 µM; IC50 (CYP2D6; [12]): 2.3 µM
CC(=O)N[C@@H](Cc1cc(F)cc(-c2cncs2)c1)[C@H](O)CN[C@H]1CC2(CCC2)Oc2ncc(CC(C)(C)C)cc21 [Example 671, N-((1S,2R)-3-(((4′S)-6′-(2,2-dimethylpropyl)-3′,4′-dihydrospiro[cyclobutane-1,2′-pyrano[2,3-b]pyridin]-4′-yl)amino)-1-(3-fluoro-5-(1,3-thiazol-5-yl)benzyl)-2-hydroxypropyl)acetamide]	0.1 µM		10 to 80%			99 µL/min/mg		48 µL/min/mg		IC50 ([1]; HEK293, HEK cell-based assay IC50, read-out: HEK cell assay): 0.012 µM; IC50 ([3]; BACE enzyme assay IC50, read-out: BACE1 FRET assay): 0.005 µM; IC50 (CYP2D6; 2D6 IC50 (uM), CYP2D6 inhibition): 0.4 µM
CC(C)(C)Cc1cnc2c(c1)[C@@H](NC[C@@H](O)[C@H](Cc1cc(F)cc(-c3nccs3)c1)NC(=O)[C@@H]1CCCO1)CC1(CCC1)O2 [Example 879]	0.2 µM	96 µL/min/mg		77 µL/min/mg						IC50 [1, 13]: 0.007 µM; IC50 [3, 14]: 0.006 µM; inhibition in vivo at 30 mg/kg (Abeta peptide; [9]): 5 to 80%; IC50 at 10 min (CYP2D6; human, pooled human liver microsomes, pH 7.4, probe bufuralol, about 5 μM, 2D6 IC50, CYP enzyme inhibition): 0.6 µM
CC(=O)N[C@@H](Cc1ccc(F)c(-c2nccs2)c1)[C@H](O)CN[C@H]1CC2(CCC2)Oc2ccc(CC(C)(C)C)cc21 [Example 640]	0.7 µM		10 to 80%		0.053 µM	59 µL/min/mg	0.006 µM	113 µL/min/mg	0.3 µM	
